# According to patent publication US20120189673A1, “POLYPEPTIDES AND USES THEREOF” (priority 2009, published 2012):
# “Also recorded” adds a separate entry of the source. Like-named read-outs stand apart in the source and are kept apart here.
# Experiments:
# [1] = tested on: intrinsic pathway of coagulation in normal human plasma; assay: Clotting assay: activated partial thromboplastin time (aPTT); type: biochemical
# Protocol: (§1) Clotting assays. All clotting times were measured using an Amelung coagulometer. Activated partial thromboplastin time (aPTT) was measured by incubating the peptides diluted in sterile water at the indicated concentrations, with 100 μL citrated human plasma for 1 minute followed by the addition of 100 μL aPTT reagent (aPTT Automate, Diagnostica Stago) for 60 seconds at 37° C. Clotting was initiated by the addition of 100 μL of a 25-mM CaCl2 solution. In the prothombrin time assay (PT), clotting was initiated by the addition of 100 μL Thrombomax with calcium (PT reagent; Sigma-Aldrich). For measuring the thrombin clotting time (TCT), clotting was initiated by the addition of 100 μL Accuclot thrombin time reagent (TCT reagent; Sigma-Aldrich).
# [2] = tested on: extrinsic pathway of coagulation in normal human plasma; assay: Clotting assay: prothrombin time (PT); type: biochemical
# Protocol: as §1
# [3] = tested on: thrombin induced fibrin network formation in normal human plasma; assay: Clotting assay: thrombin clotting time (TCT); type: biochemical
# Protocol: as §1
# E. coli [4] = assay: Viable count analysis, E. coli; type: cell-based, Escherichia coli; details: for antibacterial activity (cfu) / bactericidal activity in presence of human plasma: 10 mM Tris; for antibacterial activity (cfu): pH 7.4 buffer, dose-response (FIG. 34C); for bactericidal activity in presence of human plasma: 0.15 M NaCl, pH 7.4 with 20% human citrate plasma, versus buffer; for bactericidal activity in heat-inactivated plasma: 20% heat-inactivated human citrate plasma
# Protocol: Viable count analysis. E. coli ATCC 25922 bacteria were grown to mid-logarithmic phase in Todd-Hewitt (TH) medium. Bacteria were washed and diluted in 10 mM Tris, pH 7.4 containing 5 mM glucose. E. coli ATCC 25922 (50 μl; 2×10^6 cfu/ml) were incubated, at 37° C. for 2 h with peptides at the indicated concentrations. Other experiments with the TFPI-peptides and LL-37 were performed in 10 mM Tris, pH 7.4, containing also 0.15 M NaCl, with normal or heat inactivated 20% citrate-plasma (PP). Serial dilutions of the incubation mixture were plated on TH agar, followed by incubation at 37° C. overnight and cfu determination.
# (§2) Viable count analysis—E. coli strains were grown to mid-logarithmic phase in Todd-Hewitt (TH). P. aeruginosa strains were grown in TH overnight. Bacteria were washed and diluted in 10 mM Tris, pH 7.4 containing 5 mM glucose. 2×10^6 cfu/ml bacteria were incubated in 50 μl, at 37° C. for 2 h with the C-terminal TFPI-derived peptides GGL27, TKR22, or LIK17 at the indicated concentrations. Additional experiments were performed in 10 mM Tris, pH 7.4, containing 0.15 M NaCl, either alone or with 20% normal or heat inactivated citrate-plasma. Serial dilutions of the incubation mixture were plated on TH agar, followed by incubation at 37° C. overnight and cfu determination.
# P. aeruginosa = assay: Viable count analysis, P. aeruginosa; type: cell-based, Pseudomonas aeruginosa; details: for killing in human plasma compared with physiological buffer: 20% human citrate plasma
# Protocol: as §2
# E. coli [5] = assay: Bacterial membrane permeabilization, impermeant probe FITC (fluorescence microscopy); type: cell-based, Escherichia coli; details: 30 μM peptide
# Protocol: Fluorescence microscopy. The impermeant probe FITC (Sigma-Aldrich, St. Louis, USA) was used for monitoring of bacterial membrane permeabilization. S. aureus ATCC 29213 bacteria were grown to mid-logarithmic phase in TSB medium. Bacteria were washed and resuspended in buffer (10 mM Tris, pH 7.4, 0.15M NaCl, 5 mM glucose) to yield a suspension of 1×10^7 CFU/ml. 100 μl of the bacterial suspension was incubated with 30 μM of the respective peptides at 30° C. for 30 min. Microorganisms were then immobilized on poly (L-lysine)-coated glass slides by incubation for 45 min at 30° C., followed by addition onto the slides of 200 μl of FITC (6 μg/ml) in buffer and a final incubation for 30 min at 30° C. […] Bacteria were visualized using a Nikon Eclipse TE300 (Nikon, Melville, USA) inverted fluorescence microscope equipped with a Hamamatsu C4742-95 cooled CCD camera (Hamamatsu, Bridgewater, USA) and a Plan Apochromat ×100 objective (Olympus, Orangeburg, USA). […]
# Fluorescence microscopy—Fluorescein isothiocyanate (FITC; Sigma-Aldrich, St. Louis, USA) was used for monitoring of bacterial membrane permeabilization. […] Bacteria were visualized using a Nikon Eclipse TE300 (Nikon, Melville, USA) inverted fluorescence microscope equipped with a Hamamatsu C4742-95 cooled CCD camera (Hamamatsu, Bridgewater, USA) and a Plan Apochromat ×100 objective (Olympus, Orangeburg, USA). […]
Sequence,activated partial thromboplastin time (aPTT) [1],activated partial thromboplastin time (aPTT) ([1]; listed as GGL-27),prothrombin time (PT) [2],prothrombin time (PT) ([2]; listed as GGL-27),thrombin clotting time (TCT) [3],thrombin clotting time (TCT) ([3]; listed as GGL-27),antibacterial activity (cfu) (E. coli [4]),bactericidal activity in presence of human plasma (E. coli [4]),bactericidal activity in heat-inactivated plasma (E. coli [4]),potentiating effect of native plasma compared with heat-inactivated plasma (P. aeruginosa),killing in human plasma compared with physiological buffer (P. aeruginosa),permeabilization of bacterial membranes (E. coli [5])
"GGLIKTKRKRKKQRVKIAYEEIFVKNM [GGL27, C-terminal peptide of TFPI, plasmin-generated]",impair the intrinsic pathway of coagulation,impairs coagulation in a dose dependent manner,affected prothrombin time,impairs coagulation in a dose dependent manner,not significantly affected,impairs coagulation in a dose dependent manner,significant antibacterial activity,enhanced in human plasma; also recorded: significantly enhanced,largely abolished in heat-inactivated plasma; also recorded: abolished the potentiation,less significant,not enhanced,permeabilized bacterial membranes
LIKTKRKRKKQRVKIAY [LIK17],impair the intrinsic pathway of coagulation,–,affected prothrombin time,–,not significantly affected,–,significant antibacterial activity,significantly enhanced,abolished the potentiation,less significant,not enhanced,permeabilized bacterial membranes
